Laboratory results published in patent US20040229933A1, “Treatment of hypertension” (Pfizer Inc, priority 2003, published 2004).
Ends that are not written are not given here.

Experiments:
GPR54 = GPR54 (Homo sapiens, UniProt Q969F8); settings: cited from earlier work
rat aortic rings = assay: Isolated rat aorta assay (organ bath, aortic rings); settings: organ bath system
Protocol: Segments of endothelium intact rat aorta were trim cleaned of fat and surrounding connective tissues and aortic rings strung up in 5 ml organ baths and perfused with oxygenated modified Kreb's solution (118 mM NaCl, 4.7 mM KCl, 25 mM NaHCO3, 11.1 mM glucose, 1.18 mM KH2PO4, 1.18 mM MgSO4 and 2mM CaCl2). Following an equilibration period of approximately 60 min, tissues were challenged with 1 μM phenylephrine (PE). Following a stable response tissues were washed and the above dose of PE was repeated. Once the tissues reached a maximum response 1 μM acetylcholine was administered to determine the percentage of endothelium dependent relaxation. Tissues were washed and cumulative concentration response curves were constructed to Kiss-1 and urotensin-II for a comparison. […] The potential for Kiss-1 mediated vasorelaxation was assessed in aortic rings pre-constricted with 300 nM noradrenaline along with appropriate control tissues with no drug. Drug potency (EC50) and efficacy (Emax) was determined.
Rat aortic rings are set up as described before for measuring Kiss-1 potency and efficacy in a 5 ml organ bath set-up. The potency of antagonist can be determined by constructing a dose response curve to Kiss-1 in the presence of a single concentration of Kiss-1 antagonist or vehicle. […]

[1] = test system: CHO cells transfected with GPR54; settings: cited from earlier work

Sequence of GPR54 (Q969F8 whole entry, species assumed): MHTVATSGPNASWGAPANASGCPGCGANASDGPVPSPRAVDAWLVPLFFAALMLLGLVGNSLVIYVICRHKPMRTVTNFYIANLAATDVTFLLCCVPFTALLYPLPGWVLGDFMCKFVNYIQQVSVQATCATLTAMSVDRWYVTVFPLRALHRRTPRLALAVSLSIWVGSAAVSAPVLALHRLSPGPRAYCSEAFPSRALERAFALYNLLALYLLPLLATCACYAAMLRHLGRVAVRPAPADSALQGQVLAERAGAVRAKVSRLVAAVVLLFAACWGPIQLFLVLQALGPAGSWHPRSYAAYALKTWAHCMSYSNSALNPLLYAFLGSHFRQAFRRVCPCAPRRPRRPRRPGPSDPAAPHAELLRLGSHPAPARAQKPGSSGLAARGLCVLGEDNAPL

In the case of “Kiss-1 (40-54): C-terminal fragment of Kiss-1 (KDLPNYNWNSFGLRF-NH2; UniProt Q15726 107-121, looked up, fragment)”, the “agonist activity at GPR54” value (GPR54) is given as “potent agonists”.

With “Kiss-1 (45-54): C-terminal fragment of Kiss-1, derived from the 54 amino acid Kiss peptide sequence; Kiss-1 receptor agonist (YNWNSFGLRF-NH2; UniProt Q15726 112-121, looked up, fragment)” the vasoconstriction (rat aortic rings) was “vasoconstriction”.

In the case of “Kiss-1: carboxy-terminally amidated peptide with 54 amino acid residues, also called metastin, isolated from human placenta (GTSLSPPPESSGSPQQPGLSAPHSRQIPAPQGAVLVQREKDLPNYNWNSFGLRF-NH2; UniProt Q15726 68-121, looked up)”, the vasoconstriction (rat aortic rings) is listed as “potent vasoconstrictor”, the “migration, chemotaxis and invasion” value [1] is listed as “inhibits migration, chemotaxis and invasion” and the “agonist activity at GPR54” value (GPR54) is listed as “potent agonists”.
